This is an account of results in patent US20110293745A1, “AURORA KINASE INHIBITORS” (SUNESIS PHARMACEUTICALS, INC., priority 2008, published 2011).

In data set [1] the test system is MDA-MB-231 breast cancer xenograft. Put plainly: In vivo efficacy, mouse xenograft. As for the experimental part:
(§1) Percent TGI is then calculated with the following equation: […]
(§2) Time To Endpoint (TTE) was calculated for each individual animal to reach the predetermined study end point where the tumor volume becomes 1200 mm^3 or 10% of body weight or a greater than 20% body weight loss for two sequential measurements. The TTE is calculated and the median value is recorded for the group. Tumor Growth Delay (TGD) is then calculated with the following equation: […]
MDA-MB-231 breast cancer cells [200 μL of a 2.5×10^7 cells/mL suspension (1:1 DPBS with cells:Matrigel)] were implanted subcutaneously in the right hind flank of mice. After 13 days, when tumors reached n average volume of approximately 95 mm^3, animals were weighed, randomized by tumor volume (l×w×h×0.52), and assigned to the various study groups before initial dosing.

Data set [2] has as its system PC3 prostate tumor xenograft. Nature of the data set: In vivo efficacy, mouse xenograft. As to the method: as §1, §2
PC3 prostate tumor fragments (1 mm^3) were implanted subcutaneously in the right hind flank of mice. After 21 days, when tumors reached a volume of approximately 120 mm^3, animals were weighed, randomized by tumor volume (l×w×h×0.52), and assigned to the various study groups before initial dosing.

Data set [3] has as its system A2780 ovarian cancer xenograft. Nature of the data set: In vivo efficacy, mouse xenograft. As to the method:
as §1, §2
A2780 ovarian cancer cells [200 μL of a 2.5×10^7 cells/mL suspension (1:1 DPBS with cells:Matrigel)] were implanted subcutaneously in the right hind flank of mice. After 7 days, when tumors reached an average volume of approximately 130 mm^3, animals were weighed, randomized by tumor volume (l×w×h×0.52), and assigned to the various study groups before initial dosing.

The subject of data set [4] is broad panel of cancer cell lines. Put plainly: cells. The note with it: Homo sapiens, 96 h, read-out: anti-proliferative IC50 values.
Procedure: (§4) Cellular proliferation was assessed using the Cell Proliferation ELISA, bromodeoxyuridine (BrdU) kit (Roche) including reagents, according to the kit protocol.
The test system of data set [5] is HT-29. Nature of the data set: cells. As to conditions: Homo sapiens, HT-29, 16 h, read-out: Cell Cycle EC50.
Data set [6] addresses Aurora C (Homo sapiens, UniProt Q9UQB9). Nature of the data set: HTRF-based biochemical IC50 assay. The text has this:
[…]. A biotin-conjugated histone H3 peptide (Upstate Biotechnology) was used as a substrate.

Data set [7] has as its system H1299 non-small cell lung cancer xenograft. Put plainly: In vivo efficacy, mouse xenograft. The note with it: H1299 (NSCLC). As for the experimental part: as §1, §2
H1299 non-small cell lung cancer cells [200 μL of a 5×10^7 cells/mL suspension (1:1 DPBS with cells:Matrigel)] were implanted subcutaneously in the right hind flank. After 10 days, when tumors reached an average volume of approximately 100 mm^3, animals were weighed, randomized by tumor volume (l×w×h×0.52), and assigned to the various study groups before initial dosing.

The test system of data set [8] is histone H3 phosphorylation in femur bone marrow. Nature of the data set: pHH3 immunohistochemistry in mouse bone marrow. It counts as in vivo. The note with it: for bone marrow cells positive for pHH3, times less evident than vehicle: 170 mg/kg IP BIW×3. As for the experimental part:
(§3) For each study, animals were randomized by tumor volume and distributed into groups of ten animals each. […] Inhibition of histone H3 (HH3) phosphorylation was evaluated in HCT 116 xenograft tumors, mouse femur bone marrow, and mouse skin punch biopsy sections by immunohistochemistry (IHC). […] The tumors were collected 6 hrs post-dose on day 4, 11, 18 and on day 25 (one week after completion of dosing phase of the experiment). Phosphorylated histone H3 (pHH3) was detected by immunohistochemistry staining of tissue sections with the antibody # 9701 (Cell Signaling Technology, Inc.), which recognizes phosphorylation of Ser10 residue in histone H3 protein.

For data set [9], the system named is histone H3 phosphorylation in epidermis. Nature of the data set: pHH3 immunohistochemistry in mouse skin punches. It counts as in vivo. As to the method: as §3, with “protein. […] Three mice in each group were sacrificed on day 4 and day 18, 6 hours post-dose. Skin punches (8 mm) were fixed in formalin, trimmed, and sections stained to identify cells positive for histone H3 phosphorylation.” for “protein.”

Data set [10] concerns variety of mice xenograft models representing a range of tissue types. Put plainly: In vivo efficacy across xenograft models (summary). As to conditions: dose-dependent, well tolerated doses.
Data set [11] has as its system MiaPaca2. Nature of the data set: Cell Proliferation ELISA, BrdU. It counts as cell-based. As to conditions: Homo sapiens, MIA PaCa-2; MiaPaca2 (Pancreatic), 96 hr.
Procedure: as §4
The nature of data set [12]: Protein binding, Rapid Equilibrium Dialysis. The class given is in vitro ADME. The note with it: 15 μM. As to the method: Studies were performed using the Rapid Equilibrium Dialysis (RED) device (Linden Bioscience). Inserts were soaked in water for 10 min×2, then removed and drained immediately prior to use. […] All experiments were performed in duplicate and each chamber was sampled in duplicate. The samples were incubated for 4-6 h at 37° C. in a rotating incubator (100 rpm). Compound 2 was quantified using LC-MS/MS. Data from duplicate samples each sampled twice.

Data set [13] in a line: Clinical pharmacokinetic evaluation, 3-hour infusion. The class given is in vivo, human. As for the experimental part: Pharmacokinetic (PK) evaluation was performed on Days 1 and 15.

Sequence of Aurora C (Q9UQB9 whole entry): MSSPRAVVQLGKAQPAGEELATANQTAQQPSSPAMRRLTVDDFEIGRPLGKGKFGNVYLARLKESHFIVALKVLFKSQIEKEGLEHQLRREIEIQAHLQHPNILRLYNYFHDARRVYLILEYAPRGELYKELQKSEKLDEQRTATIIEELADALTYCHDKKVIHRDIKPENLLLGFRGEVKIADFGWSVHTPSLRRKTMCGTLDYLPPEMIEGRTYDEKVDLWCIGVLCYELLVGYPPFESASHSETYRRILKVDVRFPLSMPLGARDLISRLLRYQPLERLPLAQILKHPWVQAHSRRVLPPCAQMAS

For the compound `CS(=O)(=O)O.O=C(Nc1cccc(Cl)c1)Nc1ncc(CCNc2ncnc3ccsc23)s1` [Compound 1, 1-(3-chlorophenyl)-3-{5-[2-(thieno[3,2-d]pyrimidin-4-ylamino)ethyl]thiazo}-urea], the “% TGI” value is 20.6% in data set [1] (42.5 mg/kg biw × 3); 19.2% in [1] (85 mg/kg biw × 3); 73.8% in data set [1] (170 mg/kg biw × 3); 39.5% in data set [2] (42.5 mg/kg biw × 3); 63.6% in data set [2] (85 mg/kg biw × 3); 67.5% in data set [2] (170 mg/kg biw × 3). For the same compound, the “% TGI” value is 0% in data set [3] (42.5 mg/kg biw × 3); 9.8% in data set [3] (85 mg/kg biw × 3); 53.8% in [3] (170 mg/kg biw × 3); 0% in [7] (42.5 mg/kg biw × 3); 17.7% in data set [7] (85 mg/kg biw × 3); 69.1% in data set [7] (170 mg/kg biw × 3). The TGD stood at 3.5 days in data set [1] (42.5 mg/kg biw × 3); 4.0 days in data set [1] (85 mg/kg biw × 3); 14.1 days in data set [1] (170 mg/kg biw × 3); 0 days in [2] (42.5 mg/kg biw × 3); 12 days in [2] (85 mg/kg biw × 3); 25 days in data set [2] (170 mg/kg biw × 3). The TGD in [3] (42.5 mg/kg biw × 3) worked out at 0 days; in data set [3] (85 mg/kg biw × 3), 3.5 days; in [3] (170 mg/kg biw × 3), 9 days; in data set [7] (42.5 mg/kg biw × 3), 0 days; in data set [7] (85 mg/kg biw × 3), 0 days; in data set [7] (170 mg/kg biw × 3), 5.7 days. Also, the IC50 in data set [4] is 2 to 10 nM; in data set [6] (HTRF, N 1), 0.0034 µM; in [11], 9.1 nM. For the same compound, the EC50 in [5] is 12 nM. Moreover, in data set [6], the “IC50 values, Aurora kinase C (summary in words)” value was “low nanomolar range”. Moreover, the “bone marrow cells positive for pHH3, times less evident than vehicle” value in [8] (day 11) amounted to 3 times; in data set [8] (day 18), 7 times. In addition, in data set [8] (day 25), the “Histone H3 phosphorylation in bone marrow” value is listed as “recovered to normal levels”. Also, the “reduction of number of phospho-histone H3 positively stained cells in epidermis versus vehicle” value in data set [9] (150 mg/kg biweekly for 3 weeks, day 4 and day 18, 6 hours post-dose) was roughly 50%. The “number of positively stained cells in epidermis versus vehicle” value in data set [9] (day 25) is recorded as “still decreased”. Besides, the tumor growth inhibition in [10] is recorded as 58-99%.

As for `O=C(Nc1cccc(Cl)c1)Nc1ncc(CCNc2ncnc3ccsc23)s1` [Compound 2, 1-(3-chlorophenyl)-3-{5-[2-(thieno[3,2-d]pyrimidin-4-ylamino)ethyl]thiazol-2-yl}-urea], the mean percentage protein-bound entry in data set [12] (dog plasma), in data set [12] (human plasma) and in [12] (mouse plasma) was “greater than or equal to 99.9%” each time. In addition, the “disposition following repeated administration” value in data set [13] (first versus third weekly dose) was “no change in Compound 2 disposition”. Besides, the half-life in [13] (human, plasma, intravenous, patients, weekly 3-hour infusion, Days 1 and 15, read-out: terminal half-life (converted)) was 7 h. Further, the clearance result in data set [13] (patients) is given as “moderate to low”.
